Calls of active or inactive are those of the source. The calls are words filed in the database; no cut-off is given here.
What was measured:
[1] = tested on: HL-60; assay: Induction of apoptosis in human HL-60 cells assessed as caspase 3/7 activation incubated for 48 hrs by Caspase3/7 detection reagent based assay; assay type: functional, cell-based; details: HL-60, 48 h
[2] = target: T1, Histone deacetylase (Homo sapiens) (UniProt Q13547+O15379+Q9UBN7+Q92769+Q9UQL6+Q8WUI4+Q9BY41+Q96DB2+P56524+Q9UKV0+Q969S8); assay: Inhibition of HDAC in human CAL-27 cells assessed as combination index at 0.25 uM measured in presence of 2 uM cDDP by MTT-based Chou-Talalay method; assay type: cell-based
[3] = target: T1, Histone deacetylase (Homo sapiens); assay: Inhibition of HDAC in human CAL-27 cells assessed as combination index at 1.5 uM measured in presence of 5 uM cDDP by MTT-based Chou-Talalay method; assay type: cell-based
[4] = target: T1, Histone deacetylase (Homo sapiens); assay: Inhibition of HDAC in human Cal27CisR cells assessed as combination index at 1.5 uM measured in presence of 50 uM cDDP by MTT-based Chou-Talalay method; assay type: cell-based
[5] = target: T1, Histone deacetylase (Homo sapiens); assay: Inhibition of HDAC in human Cal27CisR cells assessed as combination index at 1.5 uM measured in presence of 20 uM cDDP by MTT-based Chou-Talalay method; assay type: cell-based
[6] = tested on: CAL-27; assay: Induction of apoptosis in human CAL-27 cells assessed as caspase 7 activation at 2 uM in presence of pretreated for 24 hrs followed by cisplatin treatment and further incubated for 18 hrs by Caspase3/7 detection reagent based assay; assay type: functional, cell-based; details: time 42.0 hrs
[7] = target: T1, Histone deacetylase (Homo sapiens); assay: Inhibition of HDAC in human Cal27CisR cells assessed as combination index at 1 uM measured in presence of 50 uM cDDP by MTT-based Chou-Talalay method; assay type: cell-based
[8] = tested on: CAL-27; assay: Induction of apoptosis in cisplatin resistant human CAL-27 cells assessed as caspase 7 activation at 2 uM in presence cisplatin of pretreated for 24 hrs followed by cisplatin treatment and further incubated for 18 hrs by Caspase3/7 detection reagent based assay; assay type: functional, cell-based; details: time 42.0 hrs
[9] = target: T1, Histone deacetylase (Homo sapiens); assay: Inhibition of HDAC in human Cal27CisR cells assessed as combination index at 2 uM measured in presence of 20 uM cDDP by MTT-based Chou-Talalay method; assay type: cell-based
[10] = target: T1, Histone deacetylase (Homo sapiens); assay: Inhibition of HDAC in human CAL-27 cells assessed as combination index at 2 uM measured in presence of 5 uM cDDP by MTT-based Chou-Talalay method; assay type: cell-based
[11] = target: T1, Histone deacetylase (Homo sapiens); assay: Inhibition of HDAC in human Cal27CisR cells assessed as combination index at 3 uM measured in presence of 20 uM cDDP by MTT-based Chou-Talalay method; assay type: cell-based
[12] = target: T1, Histone deacetylase (Homo sapiens); assay: Inhibition of HDAC in human Cal27CisR cells assessed as combination index at 1 uM measured in presence of 20 uM cDDP by MTT-based Chou-Talalay method; assay type: cell-based

**Q.** Which IC50 [1] does the source give for `O=C(CCCCCONC(=O)c1ccc2ccccc2n1)NO` here?
**A.** The IC50 was 214 nM.

**Q.** For `O=C(CCCCCONC(=O)c1cc2ccccc2[nH]1)NO`, which CI [2] is on record?
**A.** Its CI is 0.37.

**Q.** `O=C(CCCCCONC(=O)c1nccc2ccccc12)NO` was tested. Which CI [3] did it give?
**A.** Its CI is 0.37.

**Q.** And the CI [4]?
**A.** The CI was 0.38.

**Q.** What about the CI [5] of the same compound?
**A.** Its CI is 0.55.

**Q.** And the Activity [6]?
**A.** The Activity was “Active”.

**Q.** And the CI [7]?
**A.** Its CI is 0.47.

**Q.** What about the Activity [8] of the same compound?
**A.** The Activity was “Active”.

**Q.** What about the CI [9] of the same compound?
**A.** Its CI is 0.35.

**Q.** What about the CI [10] of the same compound?
**A.** The CI was 0.2.

**Q.** What about the CI [11] of the same compound?
**A.** Its CI is 0.21.

**Q.** What about the CI [12] of the same compound?
**A.** The CI was 1.42.
